Data reported in patent US10947188B2, “Small molecule ferroptosis inducers” (THE TRUSTEES OF COLUMBIA UNIVERSITY IN THE CITY OF NEW YORK, priority 2016, dated 2021).
Values belong to the compound of their own block, whether it stands above or below them.

Experiments:
[1] = system: glutathione (GSH and GSSG) in HT-1080 cells; assay: Glutathione-quantification assay; format: cell-based; conditions: 5 μM FIN56 with 100 μM α-tocopherol; 10 h
Procedure: Seeded 500,000 HT-1080 cells in a 10-cm dish. Cells were grown at 37° C. for 16 h. On the day of the analysis, cells were cotreated with 100 μM α-tocopherol and either vehicle (DMSO) or a ferroptosis inducer (10 μM erastin, 0.5 μM (1S,3R)-RSL3, or 5 μM FIN56) and incubated for 10 h. Cells were then trypsinized, pelleted, washed once with 400 μL of ice-cold PBS containing 1 mM EDTA, and sonicated. After the cell debris had been pelleted and removed, both oxidized and reduced glutathione in 120 μL of sample was quantified in technical triplicates using the QuantiChrome glutathione assay kit (BioAssay Systems). The glutathione quantity was normalized to the protein concentration measured via Bradford assay (Bio-Rad).

GPX4 transcripts = assay: Reverse-transcription quantitative PCR of GPX4 transcripts; format: cell-based; conditions: 5 μM FIN56
Procedure: Trypsinized 0.2 to 1 million cells grown in six-well dishes, pelleted them, resuspended them in Buffer RLT (Qiagen), and homogenized them with QlAshredder (Qiagen). RNA was further extracted using the RNeasy Mini Kit (Qiagen). We converted 2 μg of extracted RNA from each sample into cDNA using TaqMan reverse-transcription reagents (Life Technologies). qPCR primers were designed to detect all splicing variants using Primer Express 2.0 (Applied Biosystems). The designed primers were confirmed to amplify only the designated gene transcripts using in silico PCR (see, e.g., http://genome.ucsc.edu/cgi-bin/hgPcr). For qPCR reactions, primers, cDNA, and Power SYBR Green PCR Master Mix (Applied Biosystems) were mixed, and quantitation was performed using a StepOnePlus real-time PCR system (Applied Biosystems). Experiments were done in biological triplicates.

NCI60 cell line panel = assay: Cell-line selectivity in the NCI60 cell line panel; format: cell-based
Description: Previously reported ferroptosis inducers either deplete glutathione (by inhibiting cystine uptake) or are covalent GPX4 inhibitors.

143B cells = assay: FIN56 lethality in 143B cells with or without mitochondrial DNA; format: cell-based; conditions: ρ+ or ρ0 cells
Description: CoQ10 is an electron carrier in the mitochondrial respiratory chain and an endogenous antioxidant. However, whether it functions in the regulation of ferroptosis via either of these mechanisms remains to be elucidated. […] Thus, exactly how CoQ10 protects cells from FIN56 remains elusive, but the process may involve reprogramming of lipid metabolism in a way that is not conducive to the execution of ferroptosis, or a specific antioxidant action distinct from that of α-tocopherol.

truncated human SQS = biological target: T1, truncated human SQS (Homo sapiens, UniProt P37268); assay: SQS competition assay with purified truncated SQS, FIN56 and active probe; format: binding; conditions: pre-incubation with 100 μM FIN56 for two hours
T1 construct: truncated human squalene synthase (SQS 31-370) in pET28a expression vector; made in house; host or cells: Escherichia coli BL21-Gold (DE3)
T1 sequence (P37268 31-370): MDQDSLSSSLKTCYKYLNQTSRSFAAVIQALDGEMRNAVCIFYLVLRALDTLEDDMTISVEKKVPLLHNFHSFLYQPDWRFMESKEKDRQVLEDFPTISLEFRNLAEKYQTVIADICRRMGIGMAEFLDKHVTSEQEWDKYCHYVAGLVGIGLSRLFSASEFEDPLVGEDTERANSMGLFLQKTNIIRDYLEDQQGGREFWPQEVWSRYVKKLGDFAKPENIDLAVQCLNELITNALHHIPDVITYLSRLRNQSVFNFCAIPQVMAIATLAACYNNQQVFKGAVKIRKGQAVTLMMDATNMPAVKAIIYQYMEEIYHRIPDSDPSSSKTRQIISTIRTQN
Procedure: Bacterial expression and purification of truncated human SQS for competition assay. The plasmid encoding the truncated human squalene synthase (SQS 31-370) in pET28a expression vector, kindly provided by Chia-I Liu and Andrew H. J. Wang (Academia Sinica, Taiwan), was confirmed by DNA sequencing (Gene Wiz, Inc.) and then used to transform Escherichia coli BL21-Gold (DE3) competent cells (Agilent Technologies). The cells with the construct were grown in LB media supplemented with 100 μg/mL […] at 37° C. until the OD600 reached 1. Protein expression was induced with 0.5 mM isopropyl β-D-thiogalactoside at 17° C. overnight (12-13 h). Cells were pelleted (4,000 g, 20 min, 4° C.) and lysed by sonication in SQS buffer (50 mM Tris, pH 7.4, 250 mM NaCl, 5 mM imidazole, 5 mM MgCl2, 1 mM TCEP). Cell lysate was then centrifuged at 15,000 g for 45 min at 4° C. The supernatant was loaded onto a chromatography column containing Ni Sepharose 6 Fast Flow beads (GE Life Sciences) equilibrated with SQS buffer. After two washes and one nonspecific wash of the beads, the bound SQS was eluted with 250 mM imidazole in the same buffer. The purity of eluted fractions was verified by SDS-PAGE as more than 90% pure. The fractions containing SQS were concentrated, flash-frozen, and stored at −80° C.
SQS competition assay with purified truncated SQS, FIN56, and active probe. […]

HT-1080 cells = assay: Analysis of lipid ROS generation (C11-BODIPY 581/591 flow cytometry); format: cell-based; conditions: HT-1080; 6 h; with or without deferoxamine
Procedure: Cells were treated with test compounds, trypsinized, pelleted, and washed once with PBS. For lipophilic or aqueous ROS detection, cells were re-suspended in Hanks' Balanced Salt Solution (HBSS; […] Cells were then pelleted, re-suspended in 500 μL HBSS, strained through a 40-μm cell strainer (BD Falcon), and analyzed using a BD Accuri C6 flow cytometer (BD Biosciences). Both dyes were measured in the FL1 channel. Experiments were done in biological triplicates.

- competition of SQS binding to active affinity probe (truncated human SQS): efficiently suppressed
Compound: O=S(=O)(NC1CCCCC1)c1ccc2c(c1)C(=NO)c1cc(S(=O)(=O)NC3CCCCC3)ccc1-2 [FIN56, N2,N7-dicyclohexyl-9-(hydroxyimino)-9H-fluorene-2,7-disulfonamide]
- glutathione depletion [1]: did not deplete glutathione
- GPX4 transcript level (GPX4 transcripts): increased, rather than decreased
- cell-line selectivity pattern in NCI60 (NCI60 cell line panel): more similar to other GPX4 inhibitors than to GSH-depleting compounds
- sensitivity of 143B cells with or without mitochondrial DNA (143B cells): both sensitive to FIN56-induced ferroptosis

Compound: O=S(=O)(c1ccc2c(c1)C(=NO)c1cc(S(=O)(=O)N3CCCCC3)ccc1-2)N1CCCCC1 [CIL56, 2,7-bis(piperidin-1-ylsulfonyl)-9H-fluoren-9-one oxime]
- lipid ROS generation (BODIPY-581/591 C11) (HT-1080 cells): induced iron-dependent ROS
